US11312713B2, “Imidazo[4,5-C]quinoline derivatives as LRRK2 inhibitors” (Pfizer Inc., priority 2017, dated 2022)
Where two headings read alike, the source gives them in different places.

Legend:
[1] = molecular target: LRRK2, WT (GST-tagged truncated LRRK2) (Homo sapiens, UniProt Q5S007); assay: LRRK2 kinase assay (LanthaScreen), wild type; format: biochemical; conditions: wild type LRRK2
Method: (§1) LRRK2 kinase activity was measured using Lantha Screen technology from Invitrogen. GST-tagged truncated LRRK2 from Invitrogen (Cat #PV4874) was incubated with a fluorescein-labeled peptide substrate based upon ezrin/radixin/moesin (ERM), also known as LRRKtide (Invitrogen cat #PR8976A), in the presence of a dose response of compound. Upon completion, the assay was stopped and detected with a terbium labeled anti-phospho-ERM antibody (Invitrogen, cat #PR8975A). […] Using Echo acoustic dispensing, 60 nL of compound was transferred to a low volume Corning 384-well assay plate. 3 μL of a working solution of substrate (200 nM LRRKtide, 2 mM ATP) prepared in assay buffer (50 mM HEPES, pH 7.5, 3 mM MgCl2, with 2 mM DTT and 0.01% Brij35 added fresh) was added to the 60 nL compound assay plate. The kinase reaction was started with 3 μL of a working solution of LRRK2 enzyme at a concentration of 4 μg/m L. The final reaction concentrations were 100 nM LRRKtide, 1 mM ATP, 2 μg/mL LRRK2 enzyme and a compound dose response with a top dose of 3 μM. The reaction was allowed to progress at room temperature for 30 minutes and then stopped with the addition of 6 μL of detection buffer (20 mM Tris pH 7.6, 0.01% NP-40, 6 mM EDTA with 2 nM terbium labeled antiphospho-ERM). […] All final concentrations of substrate ATP and enzyme were the same.

[2] = molecular target: mutant G2019S LRRK2 (Homo sapiens (Human), UniProt Q5S007, G2019S); assay: LRRK2 kinase assay (LanthaScreen), G2019S mutant; format: biochemical; conditions: G2019S mutant LRRK2, read-out: LRRK2, G2019S IC50
mutant G2019S LRRK2, sequence (Q5S007 whole entry G2019S): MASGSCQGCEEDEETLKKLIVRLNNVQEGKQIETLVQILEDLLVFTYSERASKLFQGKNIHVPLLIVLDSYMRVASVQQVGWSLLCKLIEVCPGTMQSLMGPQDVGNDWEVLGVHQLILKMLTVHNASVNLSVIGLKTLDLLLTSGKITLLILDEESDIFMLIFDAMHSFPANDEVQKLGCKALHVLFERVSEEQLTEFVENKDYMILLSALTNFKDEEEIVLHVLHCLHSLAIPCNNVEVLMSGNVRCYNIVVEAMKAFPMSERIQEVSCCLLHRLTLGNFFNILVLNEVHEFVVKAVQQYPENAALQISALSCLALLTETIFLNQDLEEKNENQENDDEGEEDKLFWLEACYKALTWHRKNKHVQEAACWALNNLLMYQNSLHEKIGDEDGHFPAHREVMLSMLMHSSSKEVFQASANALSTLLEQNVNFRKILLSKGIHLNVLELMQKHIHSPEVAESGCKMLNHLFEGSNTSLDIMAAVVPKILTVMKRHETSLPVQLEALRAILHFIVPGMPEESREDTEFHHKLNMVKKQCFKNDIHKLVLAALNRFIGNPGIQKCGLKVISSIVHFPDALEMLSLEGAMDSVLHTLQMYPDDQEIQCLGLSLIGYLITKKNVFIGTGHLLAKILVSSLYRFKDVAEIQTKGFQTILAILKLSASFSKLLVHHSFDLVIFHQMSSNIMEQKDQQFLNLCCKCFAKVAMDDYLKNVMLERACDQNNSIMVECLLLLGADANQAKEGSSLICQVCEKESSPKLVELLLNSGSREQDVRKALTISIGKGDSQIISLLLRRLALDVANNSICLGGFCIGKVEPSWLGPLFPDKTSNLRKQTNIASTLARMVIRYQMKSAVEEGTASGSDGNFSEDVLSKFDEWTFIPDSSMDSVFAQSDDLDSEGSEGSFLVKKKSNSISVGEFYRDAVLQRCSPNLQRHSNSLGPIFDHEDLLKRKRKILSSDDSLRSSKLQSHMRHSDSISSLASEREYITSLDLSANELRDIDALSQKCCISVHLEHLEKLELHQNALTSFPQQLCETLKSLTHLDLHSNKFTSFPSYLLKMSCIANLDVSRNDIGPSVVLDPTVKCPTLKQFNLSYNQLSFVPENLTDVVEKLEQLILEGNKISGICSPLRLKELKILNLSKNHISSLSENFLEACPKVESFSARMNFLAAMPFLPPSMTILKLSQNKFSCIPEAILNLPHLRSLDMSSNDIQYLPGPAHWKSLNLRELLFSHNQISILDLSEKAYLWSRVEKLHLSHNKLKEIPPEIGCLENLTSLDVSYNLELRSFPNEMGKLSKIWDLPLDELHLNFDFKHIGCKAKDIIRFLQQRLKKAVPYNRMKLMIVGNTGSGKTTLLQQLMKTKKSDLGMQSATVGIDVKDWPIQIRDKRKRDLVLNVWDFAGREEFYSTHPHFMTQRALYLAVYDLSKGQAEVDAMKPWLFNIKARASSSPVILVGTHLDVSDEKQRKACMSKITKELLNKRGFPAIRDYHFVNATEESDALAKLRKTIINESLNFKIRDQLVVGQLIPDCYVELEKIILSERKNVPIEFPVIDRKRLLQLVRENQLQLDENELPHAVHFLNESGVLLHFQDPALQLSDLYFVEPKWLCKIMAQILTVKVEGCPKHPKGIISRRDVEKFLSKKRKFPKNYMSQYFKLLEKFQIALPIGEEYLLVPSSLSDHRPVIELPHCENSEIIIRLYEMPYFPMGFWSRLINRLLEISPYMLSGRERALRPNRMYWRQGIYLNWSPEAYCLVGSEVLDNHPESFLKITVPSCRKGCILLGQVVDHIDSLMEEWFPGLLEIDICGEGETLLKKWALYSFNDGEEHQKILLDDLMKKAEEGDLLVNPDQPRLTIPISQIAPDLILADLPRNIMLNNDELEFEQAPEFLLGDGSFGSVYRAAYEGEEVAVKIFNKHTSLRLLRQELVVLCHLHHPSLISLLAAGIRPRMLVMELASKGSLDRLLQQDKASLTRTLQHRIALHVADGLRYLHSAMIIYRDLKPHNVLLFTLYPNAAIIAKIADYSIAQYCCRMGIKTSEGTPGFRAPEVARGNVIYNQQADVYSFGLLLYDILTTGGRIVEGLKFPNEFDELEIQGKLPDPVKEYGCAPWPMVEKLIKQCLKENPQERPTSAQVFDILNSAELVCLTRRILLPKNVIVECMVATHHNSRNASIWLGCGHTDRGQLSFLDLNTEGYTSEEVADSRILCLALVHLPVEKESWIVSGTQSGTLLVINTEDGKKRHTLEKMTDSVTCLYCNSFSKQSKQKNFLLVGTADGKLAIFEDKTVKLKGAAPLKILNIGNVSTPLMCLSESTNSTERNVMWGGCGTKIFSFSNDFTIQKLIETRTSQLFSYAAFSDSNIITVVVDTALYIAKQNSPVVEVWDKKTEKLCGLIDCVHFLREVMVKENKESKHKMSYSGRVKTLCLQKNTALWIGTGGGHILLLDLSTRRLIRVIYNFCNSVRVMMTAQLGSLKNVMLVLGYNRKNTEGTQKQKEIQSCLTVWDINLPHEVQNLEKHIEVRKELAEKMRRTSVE
Method: as §1

[3] = LanthaScreen, LRRKtide substrate
[4] = data obtained using the formate salt of the Example

Row | Structure (SMILES) | IC50 [1, 3] | IC50 [2, 3] | IC50 [1, 4] | IC50 [2, 4]
1 | Cc1cnc(C(O)c2nc3cnc4ccc(Cl)cc4c3n2[C@@H]2CCO[C@H](C)C2)cn1 (single isomer, unassigned) [Example 15] | 16.3 nM | 18.4 nM | – | –
2 | CCc1nc2cnc3ccc(Cl)cc3c2n1[C@@H]1CCO[C@H](CC#N)C1 [Example 1, [(2S,4R)-4-(8-Chloro-2-ethyl-1H-imidazo[4,5-c]quinolin-1-yl)tetrahydro-2H-pyran-2-yl]acetonitrile] | 10.2 nM | 8.87 nM | – | –
3 | Cc1nn2cc(Cc3nc4cnc5ccc(F)cc5c4n3[C@@H]3CCO[C@H](C)C3)nc2s1 [Example 28, 8-fluoro-2-[(2-methylimidazo[2,1-b][1,3,4]thiadiazol-6-yl)methyl]-1-[(2R,4R)-2-methyltetrahydro-2H-pyran-4-yl]-1H-imidazo[4,5-c]quinoline] | 7.18 nM | 4.59 nM | – | –
4 | Cc1cnc(Cc2nc3cnc4ccc(C(F)(F)F)cc4c3n2[C@@H]2CCO[C@H](C)C2)cn1 [Example 29, 2-[(5-methylpyrazin-2-yl)methyl]-1-[(2R,4R)-2-methyltetrahydro-2H-pyran-4-yl]-8-(trifluoromethyl)-1H-imidazo[4,5-c]quinoline] | 6.47 nM | 4.13 nM | – | –
5 | C[C@@H]1C[C@H](n2c(C3CCCC3)nc3cnc4ccc(C#N)cc4c32)CCO1 [Example 30, 2-cyclopentyl-1-[(2R,4R)-2-methyltetrahydro-2H-pyran-4-yl]-1H-imidazo[4,5-c]quinoline-8-carbonitrile] | 20.6 nM | 22 nM | – | –
6 | Cc1nc2cnc3ccc(Cl)cc3c2n1C1CCOC(CC#N)C1 (stereo not drawn) [Example 31, [cis-4-(8-chloro-2-methyl-1H-imidazo[4,5-c]quinolin-1-yl)tetrahydro-2H-pyran-2-yl]acetonitrile] | 7.86 nM | 8.67 nM | – | –
7 | Cc1nc(Cc2nc3cnc4ccc(C#N)cc4c3n2C2CN(C)CC2(F)F)no1 (centres unmarked) [Example 32, 1-(4,4-difluoro-1-methylpyrrolidin-3-yl)-2-[(5-methyl-1,2,4-oxadiazol-3-yl)methyl]-1H-imidazo[4,5-c]quinoline-8-carbonitrile] | 4.59 nM | 5.98 nM | – | –
8 | Cc1cnc(Cc2nc3cnc4ccc(C#N)cc4c3n2[C@@H]2CCN(C)C2)cn1 [Example 33, 2-[(5-methylpyrazin-2-yl)methyl]-1-[(3R)-1-methylpyrrolidin-3-yl]-1H-imidazo[4,5-c]quinoline-8-carbonitrile] | – | – | 8.35 nM | 6.82 nM
9 | Cc1nnn(Cc2nc3cnc4ccc(C#N)cc4c3n2[C@@H]2CCN(C)C2)n1 [Example 34, 1-[(3R)-1-methylpyrrolidin-3-yl]-2-[(5-methyl-2H-tetrazol-2-yl)methyl]-1H-imidazo [4,5-c]quinoline-8-carbonitrile] | 5.53 nM | 5.04 nM | – | –
10 | Cc1cc(Cc2nc3cnc4ccc(C#N)cc4c3n2[C@@H]2CCN(C)C2)on1 [Example 35, 2-[(3-methyl-1,2-oxazol-5-yl)methyl]-1-[(3R)-1-methylpyrrolidin-3-yl]-1H-imidazo [4,5-c]quinoline-8-carbonitrile] | 7.57 nM | 6.17 nM | – | –
11 | COc1cnn(Cc2nc3cnc4ccc(C#N)cc4c3n2[C@@H]2CCN(C)C2)c1 [Example 36, 2-[(4-methoxy-1H-pyrazol-1-yl)methyl]-1-[(3R)-1-methylpyrrolidin-3-yl]-1H-imidazo[4,5-c]quinoline-8-carbonitrile] | 5 nM | 4.63 nM | – | –
12 | Cc1nnc(Cc2nc3cnc4ccc(C#N)cc4c3n2[C@@H]2CCN(C)C2)s1 [Example 37, 1-[(3R)-1-methylpyrrolidin-3-yl]-2-[(5-methyl-1,3,4-thiadiazol-2-yl)methyl]-1H-imidazo[4,5-c]quinoline-8-carbonitrile] | 5.26 nM | 12.6 nM | – | –
13 | Cc1cnc(Cc2nc3cnc4ccc(C#N)cc4c3n2[C@@H]2CCN(C)C2)o1 [Example 38, 2-[(5-methyl-1,3-oxazol-2-yl)methyl]-1-[(3R)-1-methylpyrrolidin-3-yl]-1H-imidazo [4,5-c]quinoline-8-carbonitrile] | 7.49 nM | 12.9 nM | – | –
14 | C[C@@H]1C[C@H](n2c(Cc3cnc(C(F)(F)F)cn3)nc3cnc4ccc(C#N)cc4c32)CCO1 [Example 39, 1-[(2R,4R)-2-methyltetrahydro-2H-pyran-4-yl]-2-{[5-(trifluoromethyl)pyrazin-2-yl]methyl}-1H-imidazo[4,5-c]quinoline-8-carbonitrile] | 17.4 nM | 9.3 nM | – | –
15 | Cc1cc(Cc2nc3cnc4ccc(Cl)cc4c3n2[C@@H]2CCN(C)C2)ncn1 [Example 40, 8-chloro-2-[(6-methylpyrimidin-4-yl)methyl]-1-[(3R)-1-methylpyrrolidin-3-yl]-1H-imidazo[4,5-c]quinoline] | 9.73 nM | 13.9 nM | – | –
16 | COc1cnn(Cc2nc3cnc4ccc(C(F)(F)F)cc4c3n2[C@@H]2CCO[C@H](C)C2)c1 [Example 41, 2-[(4-methoxy-1H-pyrazol-1-yl)methyl]-1-[(2R,4R)-2-methyltetrahydro-2H-pyran-4-yl]-8-(trifluoromethyl)-1H-imidazo[4,5-c]quinoline] | 11.1 nM | 3.87 nM | – | –
17 | Cc1nc(Cc2nc3cnc4ccc(Cl)cc4c3n2[C@@H]2CCN(C)C2)no1 [Example 42, 8-chloro-2-[(5-methyl-1,2,4-oxadiazol-3-yl)methyl]-1-[(3R)-1-methylpyrrolidin-3-yl]-1H-imidazo[4,5-c]quinoline] | 12.9 nM | 26 nM | – | –
18 | Cc1nc(Cc2nc3cnc4ccc(Cl)cc4c3n2C2CN(C)CC2(F)F)no1 (centres unmarked) [Example 45, 8-chloro-1-(4,4-difluoro-1-methylpyrrolidin-3-yl)-2-[(5-methyl-1,2,4-oxadiazol-3-yl)methyl]-1H-imidazo[4,5-c]quinoline] | 8.13 nM | 5.82 nM | – | –
19 | Cc1cn(Cc2nc3cnc4ccc(Cl)cc4c3n2C2CCOCC2(F)F)nn1 (centres unmarked) [Example 46, 8-chloro-1-(3,3-difluorotetrahydro-2H-pyran-4-yl)-2-[(4-methyl-1H-1,2,3-triazol-1-yl)methyl]-1H-imidazo[4,5-c]quinoline] | 9.31 nM | 7.66 nM | – | –
20 | CN1CC(n2c(Cn3cc(C4CC4)nn3)nc3cnc4ccc(Cl)cc4c32)C(F)(F)C1 (centres unmarked) [Example 47, 8-chloro-2-[(4-cyclopropyl-1H-1,2,3-triazol-1-yl)methyl]-1-(4,4-difluoro-1-methylpyrrolidin-3-yl)-1H-imidazo[4,5-c]quinoline] | 2.8 nM | 1.42 nM | – | –
21 | Cc1cn(Cc2nc3cnc4ccc(Cl)cc4c3n2C2CN(C)CC2(F)F)nn1 (centres unmarked) [Example 48, 8-chloro-1-(4,4-difluoro-1-methylpyrrolidin-3-yl)-2-[(4-methyl-1H-1,2,3-triazol-1-yl)methyl]-1H-imidazo[4,5-c]quinoline] | 3.27 nM | 0.938 nM | – | –
22 | Cc1nnn(Cc2nc3cnc4ccc(Cl)cc4c3n2C2CN(C)CC2(F)F)n1 (centres unmarked) [Example 49, 8-chloro-1-(4,4-difluoro-1-methylpyrrolidin-3-yl)-2-[(5-methyl-2H-tetrazol-2-yl)methyl]-1H-imidazo[4,5-c]quinoline] | 4.48 nM | 1.34 nM | – | –
23 | Cc1cnc(Cc2nc3cnc4ccc(Cl)cc4c3n2C2CN(C)CC2(F)F)cn1 (centres unmarked) [Example 50, 8-chloro-1-(4,4-difluoro-1-methylpyrrolidin-3-yl)-2-[(5-methylpyrazin-2-yl)methyl]-1H-imidazo[4,5-c]quinoline] | 5.06 nM | 1.11 nM | – | –
24 | Cc1cc(Cc2nc3cnc4ccc(Cl)cc4c3n2C2CN(C)CC2(F)F)no1 (centres unmarked) [Example 51, 8-chloro-1-(4,4-difluoro-1-methylpyrrolidin-3-yl)-2-[(5-methyl-1,2-oxazol-3-yl)methyl]-1H-imidazo[4,5-c]quinoline] | 5.78 nM | 3.49 nM | – | –
25 | Cc1cc(Cc2nc3cnc4ccc(Cl)cc4c3n2C2CN(C)CC2(F)F)no1 (centres unmarked) [Example 52, 8-chloro-1-(4,4-difluoro-1-methylpyrrolidin-3-yl)-2-[(5-methyl-1,2-oxazol-3-yl)methyl]-1H-imidazo[4,5-c]quinoline] | 15.1 nM | 12.9 nM | – | –
26 | COCc1cn(Cc2nc3cnc4ccc(F)cc4c3n2C2CN(C)CC2(F)F)nn1 (centres unmarked) [Example 53, 1-(4,4-difluoro-1-methylpyrrolidin-3-yl)-8-fluoro-2-{[4-(methoxymethyl)-1H-1,2,3-triazol-1-yl]methyl}-1H-imidazo[4,5-c]quinoline] | 7.51 nM | 7.49 nM | – | –
27 | COCc1cn(Cc2nc3cnc4ccc(Cl)cc4c3n2C2CCOCC2(F)F)nn1 (centres unmarked) [Example 55, 8-chloro-1-(3,3-difluorotetrahydro-2H-pyran-4-yl)-2-{[4-(methoxymethyl)-1H-1,2,3-triazol-1-yl]methyl}-1H-imidazo[4,5-c]quinoline] | 11.3 nM | 6.49 nM | – | –
28 | Cc1nc(Cc2nc3cnc4ccc(C#N)cc4c3n2[C@@H]2CCN(CC(F)(F)F)C2)no1 [Example 56, 2-[(5-methyl-1,2,4-oxadiazol-3-yl)methyl]-1-[(3R)-1-(2,2,2-trifluoroethyl)pyrrolidin-3-yl]-1H-imidazo[4,5-c]quinoline-8-carbonitrile] | 6.46 nM | 6.48 nM | – | –
